Source: patent US7179597B2, “Genetic diagnosis for QT prolongation related adverse drug reactions” (Georgetown University, priority 2000, dated 2007)
“Also recorded” adds a separate entry of the source. Like-named read-outs stand apart in the source and are kept apart here.

Experiments:
Ito = experiment: Whole-cell voltage clamp of transient outward current Ito in rabbit ventricular myocytes; format: cell-based; settings: 5 μmol/L, 5 minutes superfusion
IK1 = experiment: Whole-cell voltage clamp of inward rectifier IK1 in rabbit ventricular myocytes; format: cell-based; settings: 5 μmol/L, 5 minutes
[1] = tested on: cultured neonatal rat cardiomyocytes; experiment: Spontaneous beating rate of cultured neonatal rat cardiomyocytes; format: cell-based; set-up: Reduction in beating rate / Maximum inhibition of beating activity, drug alone: dose or concentration left out as unconfirmed
Excerpt: Delayed rectifier potassium channels are important components of cardiac repolarization. There are two major delayed rectifier potassium currents, IKr (rapid component) and IKs (slow component). Drugs that block these currents, particularly IKr, slow cardiac repolarization and increase the risk of developing potentially fatal cardiac arrhythmias such as Torsades de Pointes. Moreover, mutations in the genes encoding for delayed rectifier potassium channel proteins have been linked to long QT syndrome, a condition seen in patients at high risk for developing Torsades de Pointes cardiac arrhythmias and sudden death. […] Recently, however, a new compound, chromanol 293B, has been reported to be a relatively selective blocker of IKs (Busch et al., Pflug. Arch. 432: 1094–6 (1996)). In the present report, we have tested this compound using spontaneously beating cultures of neonatal rat cardiomyocytes.
In addition to the different electrophysiological properties of IKr versus IKs that have been described by others, these currents can be distinguished pharmacologically (Sanguinetti et al., J. Gen. Physiol. 96: 195–215 (1990)). […] To determine if pharmacological blockade of delayed rectifier potassium currents influences the spontaneous beating rate of cultured neonatal rat cardiomyocytes, a dose-response curve was generated for chromanol 293B.

IKs = settings: cited from earlier work
CYP1A2 = biological target: T1, CYP1A2 (Homo sapiens, UniProt P05177); settings: Table 3; cited from earlier work
T1 sequence (P05177 1-516): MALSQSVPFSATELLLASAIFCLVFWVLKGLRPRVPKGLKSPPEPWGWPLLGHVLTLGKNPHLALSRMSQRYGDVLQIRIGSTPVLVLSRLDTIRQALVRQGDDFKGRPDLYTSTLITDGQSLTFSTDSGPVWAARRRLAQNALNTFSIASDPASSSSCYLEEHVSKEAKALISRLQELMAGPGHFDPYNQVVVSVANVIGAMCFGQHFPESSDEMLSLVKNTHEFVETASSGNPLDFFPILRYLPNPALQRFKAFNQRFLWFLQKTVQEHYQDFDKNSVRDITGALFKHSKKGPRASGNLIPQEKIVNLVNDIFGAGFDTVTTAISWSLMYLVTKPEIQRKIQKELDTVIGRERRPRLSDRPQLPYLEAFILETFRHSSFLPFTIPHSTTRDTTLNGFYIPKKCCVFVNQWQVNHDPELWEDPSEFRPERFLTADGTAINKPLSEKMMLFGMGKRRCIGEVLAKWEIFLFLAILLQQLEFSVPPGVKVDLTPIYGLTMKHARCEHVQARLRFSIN

CYP2C19 = CYP2C19 (Homo sapiens, UniProt P33261); settings: Table 3; cited from earlier work
[2] = cited from earlier work
[3] = cited from earlier work; remark: listed apart in the source
CYP2D6 = CYP2D6 (Homo sapiens, UniProt P10635); settings: Table 3, cited from earlier work
CYP2C9 = CYP2C9 (Homo sapiens, UniProt P11712); settings: Table 3; cited from earlier work
P-gp = P-gp (Homo sapiens, UniProt P08183); settings: Atadja et al. 1998; cited from earlier work
L-type ICa = L-type ICa (Oryctolagus cuniculus, UniProt P15381); settings: 10 μmol/L
[4] = tested on: rabbit ventricular myocytes; settings: 3.3 μmol/L, about 4–5 min; before drug 341±49 ms; n=16, p>0.05
IKr = biological target: T2, IKr (Oryctolagus cuniculus, UniProt Q8WNY2); settings: superfusion with 1–2.5 μmol/L (Liu et al. 1998); cited from earlier work
T2 sequence (Q8WNY2 1-1161): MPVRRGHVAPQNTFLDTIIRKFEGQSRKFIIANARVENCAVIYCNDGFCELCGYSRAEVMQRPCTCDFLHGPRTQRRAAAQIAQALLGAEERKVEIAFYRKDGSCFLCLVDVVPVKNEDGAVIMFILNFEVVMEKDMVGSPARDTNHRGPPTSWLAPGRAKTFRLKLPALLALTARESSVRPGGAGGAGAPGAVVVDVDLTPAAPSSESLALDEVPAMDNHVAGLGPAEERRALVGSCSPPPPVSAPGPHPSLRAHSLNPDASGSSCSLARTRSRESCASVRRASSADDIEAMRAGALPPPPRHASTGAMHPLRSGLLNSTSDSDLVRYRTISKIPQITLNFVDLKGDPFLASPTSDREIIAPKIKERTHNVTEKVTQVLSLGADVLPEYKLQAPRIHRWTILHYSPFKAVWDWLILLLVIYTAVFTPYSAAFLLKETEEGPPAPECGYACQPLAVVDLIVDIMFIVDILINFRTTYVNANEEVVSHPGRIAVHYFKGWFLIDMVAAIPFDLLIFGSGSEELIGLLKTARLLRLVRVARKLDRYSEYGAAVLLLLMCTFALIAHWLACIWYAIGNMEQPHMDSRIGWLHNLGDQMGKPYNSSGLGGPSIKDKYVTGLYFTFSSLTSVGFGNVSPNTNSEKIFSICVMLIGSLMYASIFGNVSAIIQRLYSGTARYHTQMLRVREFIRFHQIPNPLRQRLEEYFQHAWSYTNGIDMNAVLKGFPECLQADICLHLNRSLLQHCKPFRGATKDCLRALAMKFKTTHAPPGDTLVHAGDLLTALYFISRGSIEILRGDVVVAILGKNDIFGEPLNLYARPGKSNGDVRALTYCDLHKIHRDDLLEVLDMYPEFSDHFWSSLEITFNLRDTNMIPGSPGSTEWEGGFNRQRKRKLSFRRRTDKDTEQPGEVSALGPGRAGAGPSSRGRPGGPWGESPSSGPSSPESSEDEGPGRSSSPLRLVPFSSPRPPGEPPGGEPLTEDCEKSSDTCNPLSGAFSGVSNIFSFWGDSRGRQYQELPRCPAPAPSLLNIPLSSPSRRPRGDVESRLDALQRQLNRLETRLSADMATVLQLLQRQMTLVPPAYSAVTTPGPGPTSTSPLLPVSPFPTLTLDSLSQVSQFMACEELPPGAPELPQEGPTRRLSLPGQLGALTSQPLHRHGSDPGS

CYP3A = settings: Table 3; cited from earlier work

Chain of CYP2D6 (P10635 whole entry): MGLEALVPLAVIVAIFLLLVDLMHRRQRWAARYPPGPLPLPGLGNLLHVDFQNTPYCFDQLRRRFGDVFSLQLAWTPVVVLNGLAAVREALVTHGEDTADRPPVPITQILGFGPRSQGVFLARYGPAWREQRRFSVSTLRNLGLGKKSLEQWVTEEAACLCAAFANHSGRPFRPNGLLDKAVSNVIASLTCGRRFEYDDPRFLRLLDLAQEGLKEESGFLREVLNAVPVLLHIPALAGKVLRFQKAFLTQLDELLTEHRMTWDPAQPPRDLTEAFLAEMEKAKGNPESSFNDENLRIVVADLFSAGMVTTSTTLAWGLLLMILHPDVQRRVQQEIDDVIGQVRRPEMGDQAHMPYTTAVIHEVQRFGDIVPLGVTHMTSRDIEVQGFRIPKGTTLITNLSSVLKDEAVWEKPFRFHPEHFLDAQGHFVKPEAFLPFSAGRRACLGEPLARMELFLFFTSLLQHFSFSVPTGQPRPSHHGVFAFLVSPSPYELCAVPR
Chain of L-type ICa (P15381 whole entry, other chains not shown): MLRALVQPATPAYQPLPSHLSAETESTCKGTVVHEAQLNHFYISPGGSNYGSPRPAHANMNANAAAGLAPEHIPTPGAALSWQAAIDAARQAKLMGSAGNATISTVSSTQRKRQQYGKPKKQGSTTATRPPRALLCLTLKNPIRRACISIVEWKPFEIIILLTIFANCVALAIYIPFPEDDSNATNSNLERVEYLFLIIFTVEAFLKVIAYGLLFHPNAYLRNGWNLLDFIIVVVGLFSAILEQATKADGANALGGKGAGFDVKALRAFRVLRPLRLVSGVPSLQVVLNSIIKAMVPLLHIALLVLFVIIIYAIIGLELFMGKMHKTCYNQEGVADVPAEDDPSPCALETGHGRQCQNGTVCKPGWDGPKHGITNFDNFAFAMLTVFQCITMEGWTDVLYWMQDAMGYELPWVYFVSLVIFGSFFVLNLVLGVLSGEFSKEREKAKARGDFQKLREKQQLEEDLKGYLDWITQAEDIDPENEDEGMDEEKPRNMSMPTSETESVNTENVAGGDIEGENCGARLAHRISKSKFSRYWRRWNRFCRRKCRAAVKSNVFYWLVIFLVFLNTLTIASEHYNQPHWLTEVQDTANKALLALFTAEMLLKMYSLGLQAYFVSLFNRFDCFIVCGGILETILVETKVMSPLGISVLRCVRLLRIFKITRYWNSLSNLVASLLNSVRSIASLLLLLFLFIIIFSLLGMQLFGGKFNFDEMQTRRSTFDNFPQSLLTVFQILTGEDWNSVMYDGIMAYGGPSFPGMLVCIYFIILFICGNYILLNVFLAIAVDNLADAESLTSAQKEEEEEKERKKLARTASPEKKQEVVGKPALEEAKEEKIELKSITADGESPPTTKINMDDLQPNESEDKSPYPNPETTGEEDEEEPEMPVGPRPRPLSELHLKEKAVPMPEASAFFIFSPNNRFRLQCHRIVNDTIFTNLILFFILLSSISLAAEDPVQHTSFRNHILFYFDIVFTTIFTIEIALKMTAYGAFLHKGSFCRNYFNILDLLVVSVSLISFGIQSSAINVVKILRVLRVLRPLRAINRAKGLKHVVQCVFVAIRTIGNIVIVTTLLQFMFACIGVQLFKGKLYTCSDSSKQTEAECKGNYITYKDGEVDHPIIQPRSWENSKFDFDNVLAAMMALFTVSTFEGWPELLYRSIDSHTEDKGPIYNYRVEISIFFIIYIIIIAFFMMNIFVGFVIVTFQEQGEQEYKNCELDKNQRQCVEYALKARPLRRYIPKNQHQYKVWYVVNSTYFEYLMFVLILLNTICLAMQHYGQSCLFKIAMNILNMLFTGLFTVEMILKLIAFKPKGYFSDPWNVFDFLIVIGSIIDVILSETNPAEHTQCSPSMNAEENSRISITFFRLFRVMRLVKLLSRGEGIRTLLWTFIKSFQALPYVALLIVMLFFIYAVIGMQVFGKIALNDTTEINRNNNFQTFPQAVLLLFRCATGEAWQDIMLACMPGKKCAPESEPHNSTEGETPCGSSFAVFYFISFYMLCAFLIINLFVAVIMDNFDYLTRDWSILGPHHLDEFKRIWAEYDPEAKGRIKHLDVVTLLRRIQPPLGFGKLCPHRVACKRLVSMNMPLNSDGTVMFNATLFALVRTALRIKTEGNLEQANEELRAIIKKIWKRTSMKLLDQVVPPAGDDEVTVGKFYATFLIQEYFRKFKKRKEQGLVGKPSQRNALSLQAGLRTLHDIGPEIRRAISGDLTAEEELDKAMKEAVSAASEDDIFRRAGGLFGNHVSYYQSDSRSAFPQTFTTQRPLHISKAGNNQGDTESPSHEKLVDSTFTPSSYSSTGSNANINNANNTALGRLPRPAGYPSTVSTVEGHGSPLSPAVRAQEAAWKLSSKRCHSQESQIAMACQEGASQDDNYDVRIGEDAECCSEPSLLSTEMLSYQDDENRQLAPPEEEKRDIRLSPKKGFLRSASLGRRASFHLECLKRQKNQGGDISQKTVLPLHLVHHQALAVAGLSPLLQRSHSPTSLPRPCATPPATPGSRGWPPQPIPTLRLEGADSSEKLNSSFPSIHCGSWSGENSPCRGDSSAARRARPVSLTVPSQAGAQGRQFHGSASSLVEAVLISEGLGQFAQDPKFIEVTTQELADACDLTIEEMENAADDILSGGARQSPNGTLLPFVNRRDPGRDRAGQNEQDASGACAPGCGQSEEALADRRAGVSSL
Chain of L-type ICa (P13806 27-1106 partner, other chains not shown): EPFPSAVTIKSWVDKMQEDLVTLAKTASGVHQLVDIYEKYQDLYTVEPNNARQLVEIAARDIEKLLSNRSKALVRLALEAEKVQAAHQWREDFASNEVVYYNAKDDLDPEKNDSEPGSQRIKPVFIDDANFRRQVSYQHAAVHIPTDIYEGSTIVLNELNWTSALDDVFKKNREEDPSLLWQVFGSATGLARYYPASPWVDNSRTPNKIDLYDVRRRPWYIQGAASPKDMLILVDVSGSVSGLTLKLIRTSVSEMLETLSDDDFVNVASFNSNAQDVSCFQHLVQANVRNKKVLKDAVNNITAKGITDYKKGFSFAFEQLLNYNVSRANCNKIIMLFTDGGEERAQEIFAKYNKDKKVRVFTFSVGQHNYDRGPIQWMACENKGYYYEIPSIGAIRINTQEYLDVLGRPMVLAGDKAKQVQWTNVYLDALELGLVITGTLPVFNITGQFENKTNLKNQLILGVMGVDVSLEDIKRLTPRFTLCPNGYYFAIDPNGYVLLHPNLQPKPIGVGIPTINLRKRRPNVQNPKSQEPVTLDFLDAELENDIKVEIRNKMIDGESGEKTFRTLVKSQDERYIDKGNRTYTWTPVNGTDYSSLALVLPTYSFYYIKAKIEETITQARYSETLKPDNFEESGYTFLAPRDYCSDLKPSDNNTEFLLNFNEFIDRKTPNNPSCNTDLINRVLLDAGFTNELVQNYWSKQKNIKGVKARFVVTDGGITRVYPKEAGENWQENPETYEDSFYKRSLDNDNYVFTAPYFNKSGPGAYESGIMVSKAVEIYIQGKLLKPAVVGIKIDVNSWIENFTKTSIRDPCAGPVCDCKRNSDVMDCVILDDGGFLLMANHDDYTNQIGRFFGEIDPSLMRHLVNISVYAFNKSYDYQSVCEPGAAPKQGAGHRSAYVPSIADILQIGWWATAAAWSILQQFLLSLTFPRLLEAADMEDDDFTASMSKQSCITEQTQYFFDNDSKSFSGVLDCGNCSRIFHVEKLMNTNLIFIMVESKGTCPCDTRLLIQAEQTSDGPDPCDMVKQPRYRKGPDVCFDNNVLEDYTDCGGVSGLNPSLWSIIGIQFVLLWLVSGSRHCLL
Chain of CYP2C19 (P33261 whole entry): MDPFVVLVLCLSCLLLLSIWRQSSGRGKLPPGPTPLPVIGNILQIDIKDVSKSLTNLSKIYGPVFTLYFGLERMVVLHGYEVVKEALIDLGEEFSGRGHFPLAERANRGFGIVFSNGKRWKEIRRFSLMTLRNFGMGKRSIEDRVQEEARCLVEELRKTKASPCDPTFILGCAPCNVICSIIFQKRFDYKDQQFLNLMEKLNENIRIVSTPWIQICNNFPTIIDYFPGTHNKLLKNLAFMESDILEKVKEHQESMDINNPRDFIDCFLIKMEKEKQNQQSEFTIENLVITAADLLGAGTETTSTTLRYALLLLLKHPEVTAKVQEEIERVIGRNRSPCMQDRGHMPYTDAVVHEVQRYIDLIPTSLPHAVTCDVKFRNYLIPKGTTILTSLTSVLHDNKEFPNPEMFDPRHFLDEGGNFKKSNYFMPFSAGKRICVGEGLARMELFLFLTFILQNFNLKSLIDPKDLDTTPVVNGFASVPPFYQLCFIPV
Chain of CYP2C9 (P11712 whole entry): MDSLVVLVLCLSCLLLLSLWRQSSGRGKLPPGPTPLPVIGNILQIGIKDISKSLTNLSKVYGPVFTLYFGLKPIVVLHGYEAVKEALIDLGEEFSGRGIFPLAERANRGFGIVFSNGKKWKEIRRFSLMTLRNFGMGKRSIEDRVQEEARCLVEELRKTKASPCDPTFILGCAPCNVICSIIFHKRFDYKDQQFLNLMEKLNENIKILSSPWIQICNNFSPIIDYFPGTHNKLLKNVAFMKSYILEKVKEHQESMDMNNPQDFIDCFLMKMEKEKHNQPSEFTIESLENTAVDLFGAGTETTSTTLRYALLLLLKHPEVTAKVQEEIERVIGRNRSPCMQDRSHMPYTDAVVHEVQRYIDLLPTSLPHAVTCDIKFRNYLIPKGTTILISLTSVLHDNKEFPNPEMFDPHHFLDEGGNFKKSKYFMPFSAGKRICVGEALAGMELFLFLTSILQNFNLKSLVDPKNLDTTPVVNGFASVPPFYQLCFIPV

Cc1cccc(CCN2CCC(C(=O)c3ccc(NS(C)(=O)=O)cc3)CC2)n1 [E-4031]
Effect on transient outward current (Ito) (Ito): no effect; also recorded: without affecting | Effect on IK1 outward (holding) current (IK1; at −40 mV): without affecting; also recorded: no effect | Effect on IK1 inward current (IK1; recorded at −120 mV): little effect | Maximum inhibition of beating activity, drug alone ([1]; 5–10 mnM E-4031 alone): 50%

CCS(=O)(=O)N(C)[C@H]1c2cc(C#N)ccc2OC(C)(C)[C@@H]1O (racemic) [chromanol 293B]
Concentrations up to which IKs is selectively blocked (IKs; Busch et al. 1996): 10 to 30 µM | Concentration required to achieve complete blockade of IKs (IKs; guinea pig ventricular myocytes (Busch et al. 1996)): 100 µM | Maximum inhibition of beating activity, drug alone ([1]; 293B alone): 50% | Effect on spontaneous beating rate ([1]; dose-response curve): dose-dependent decrease in beating rate | Reduction in beating rate ([1]; highest drug concentration tested, relative to control): about 50%

CN(C)CCC=C1c2ccccc2CCc2ccccc21 [Amitriptyline]
Interactions: cytochrome P-450 isoform 1A2, substrate or inhibitor (CYP1A2): Substrate | Interactions: cytochrome P-450 isoform 2C19, substrate or inhibitor (CYP2C19): Substrate | TdP ([2]; Table 2, FDA / medical literature): Yes | TdP ([2]; Table 3): Yes | QT ([3]; Table 2, drug labeling): Yes | QT ([3]; Table 3): Yes | Interactions: cytochrome P-450 isoform 2D6, substrate or inhibitor (CYP2D6): Substrate | Interactions: cytochrome P-450 isoform 2C9, substrate or inhibitor (CYP2C9): Substrate

C/C=C/C[C@@H](C)C(=O)[C@H]1C(=O)N[C@@H](C(C)C)C(=O)N(C)CC(=O)N(C)[C@@H](CC(C)C)C(=O)N[C@@H](C(C)C)C(=O)N(C)[C@@H](CC(C)C)C(=O)N[C@@H](C)C(=O)N[C@H](C)C(=O)N(C)[C@@H](CC(C)C)C(=O)N(C)[C@@H](CC(C)C)C(=O)N(C)[C@@H](C(C)C)C(=O)N1C [PSC-833]
Effect on P-gp (P-gp): potently and specifically inhibits

CC/C(=C(\c1ccccc1)c1ccc(OCCN(C)C)cc1)c1ccccc1 [Tamoxifen]
Inhibition of ICa (L-type ICa): almost complete inhibition; also recorded: marked inhibition | APD measured at 90% repolarization (APD90) after superfusion [4]: 332 ± 19 ms

CN(C)CCCN1c2ccccc2CCc2ccc(Cl)cc21 [Clomipramine]
Interactions: cytochrome P-450 isoform 1A2, substrate or inhibitor (CYP1A2): Substrate | Interactions: cytochrome P-450 isoform 2C19, substrate or inhibitor (CYP2C19): Substrate

CN(CCOc1ccc(NS(C)(=O)=O)cc1)CCc1ccc(NS(C)(=O)=O)cc1 [dofetilide]
Effect on IKr tail current (IKr): abolished

O=C(CCCN1CCC(O)(c2ccc(Cl)cc2)CC1)c1ccc(F)cc1 [Haloperidol]
Interactions: cytochrome P-450 isoform 1A2, substrate or inhibitor (CYP1A2): Substrate | Interactions: cytochrome P-450 isoform 3A, substrate or inhibitor (CYP3A): Substrate | Interactions: cytochrome P-450 isoform 2D6, substrate or inhibitor (CYP2D6; CYP2D6 inhibitor): Inhibitor | Interactions: cytochrome P-450 isoform 2D6, substrate or inhibitor (CYP2D6; CYP2D6 substrate): Substrate
